The numbers were not newly measured in publication PMC7997453 (Pharmaceuticals, 2021), which cites them from elsewhere.

As usually defined, the Km is the substrate concentration at which the rate is half of its maximum.

Like-named read-outs stand apart in the source and are kept apart here.

One data set has as its system Caco-2 cell line. Particulars: pH 7.4:7.4; ref supplement 7; cited from earlier work.
For data set [1] the following is noted: cited from earlier work.
For a further data set, the system named is CYP3A4. Further details: method as in earlier work. Particulars: ref 3 (supplement ref 8), cited from earlier work; for Km: unbound Michaelis constant.
Another data set relates to CYP3A5. Particulars: cited from earlier work; for Km: unbound Michaelis constant.
The conditions of data set [2]: ref supplement 4; cited from earlier work.
Details of data set [3]: method as in supplement 6. Particulars: ref supplement 6; cited from earlier work.
The conditions of data set [4]: ref supplement 4; cited from earlier work. This is another data set of the same source.
On the set-up of data set [5]: method as in supplement 4. Particulars: ref supplement 4; cited from earlier work.
Details of data set [6]: method as in supplement 5. Particulars: ref supplement 5; cited from earlier work.
Where [7] appears, read: single oral dose 1 mg, CYP3A5 expressers.
The mark [8] stands for this setting: single oral dose 1 mg, CYP3A5 non-expressers.
The mark [9] stands for this setting: single oral dose 2 mg, CYP3A5 expressers.
Setting [10] is: single oral dose 2 mg, CYP3A5 non-expressers.
[11] abbreviates: single oral dose 5 mg, CYP3A5 expressers.
The mark [12] stands for this setting: single oral dose 5 mg, CYP3A5 non-expressers.

Consider `Cc1ncc2n1-c1ccc(Cl)cc1C(c1ccccc1F)=NC2` [midazolam], for which the “Papp,caco-2,(pH 7.4:7.4)” value in the data set on Caco-2 cell line is on record as 32.4 ×10-6cm/s.
For the compound `C=CC[C@@H]1/C=C(\C)C[C@H](C)C[C@H](OC)[C@H]2O[C@@](O)(C(=O)C(=O)N3CCCC[C@H]3C(=O)O[C@H](/C(C)=C/[C@@H]3CC[C@@H](O)[C@H](OC)C3)[C@H](C)[C@@H](O)CC1=O)[C@H](C)C[C@@H]2OC` [tacrolimus], the “AUC Obs (Observed)” value in data set [1] (setting [7]) was 19.34 ng·h/mL; in data set [1] (setting [8]), 30.34 ng·h/mL; in data set [1] (setting [9]), 60.83 ng·h/mL; in data set [1] (setting [10]), 119.02 ng·h/mL; in data set [1] (setting [11]) it was 90.40 ng·h/mL; in [1] (setting [12]), 134.77 ng·h/mL. Also, the “Cmax Obs (Observed)” value in data set [1] (setting [7]) is reported as 3.88 ng/mL; in data set [1] (setting [8]) it was 5.52 ng/mL; in data set [1] (setting [9]), 14.09 ng/mL; in data set [1] (setting [10]) it was 24.28 ng/mL; in [1] (setting [11]), 20.8 ng/mL; in data set [1] (setting [12]), 27.90 ng/mL. The “Tmax Obs (Observed)” value in [1] (setting [7]) is listed as 1.75 h; in [1] (setting [8]), 1.5 h; in data set [1] (setting [9]) it was 1.26 h; in data set [1] (setting [10]) it was 1.35 h; in [1] (setting [11]), 1.40 h; in data set [1] (setting [12]), 1.30 h. Besides, in the data set with CYP3A4 (12-hydroxy tacrolimus formation), the “CYP3A4 12-HT Vmax” value is given as 0.6 pmol/min/pmol. In addition, the “CYP3A4 13-DMT Vmax” value in the data set on CYP3A4 (13-O-desmethyl tacrolimus formation) is reported as 8 pmol/min/pmol. In addition, the Km in the data set on CYP3A4 (read-out: CYP3A4 12-HT Km,u) was 0.29 µM; with CYP3A4 (read-out: CYP3A4 13-DMT Km,u), 0.21 µM; in the data set with CYP3A5 (ref 3 (supplement ref 8), read-out: CYP3A5 12-HT Km,u) it was 0.35 µM; in the data set with CYP3A5 (ref 3 (supplement ref 8), read-out: CYP3A5 13-DMT Km,u), 0.21 µM. Also, the “CYP3A5 12-HT Vmax” value in the data set on CYP3A5 (12-hydroxy tacrolimus formation, ref 3 (supplement ref 8)) is 1.4 pmol/min/pmol. The “CYP3A5 13-DMT Vmax” value in the data set on CYP3A5 (13-O-desmethyl tacrolimus formation, ref 3 (supplement ref 8)) was 17 pmol/min/pmol. Besides, in the data set on CYP3A5 (in vitro), the “intrinsic clearance of tacrolimus by CYP3A5 versus CYP3A4” value is given as “more than two-fold faster”. Further, the “LogPo:w” value in [2] was 3.26. Besides, in [3], the Intrinsic solubility was 12 µg/mL. In addition, in data set [4], the fu plasma is reported as 0.013. In addition, the B/P in [5] is given as 35. For the same compound, the fu gut in [6] is recorded as 1. Further, the “Papp,caco-2,(pH 7.4:7.4)” value in the data set with Caco-2 cell line is on record as 13.1 ×10-6cm/s.
